Experimental findings from patent publication US20100267712A1, “ISOINDOLINE COMPOUNDS FOR THE TREATMENT OF SPINAL MUSCULAR ATROPHY AND OTHER USES” (The United States of America, as represented by the …, priority 2007, published 2010) are described below.

Structures are written as SMILES.

Data set [1] concerns SMN2-linked luciferase-reporter gene construct. The data set is described as follows: SMN Splice Reporter Assay (SMN2-linked luciferase reporter). It counts as cell-based. The following applies: for EC50: cervical carcinoma cell lines, SMN2 splice luciferase reporter; for Fold Increase: fold-increase of luciferase over baseline reading of transformed cells without any test compound. A digest of the protocol:
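Cervical carcinoma cells carrying an SMN2-luciferase splicing reporter, in-frame only with exon 7 inclusion, were treated with compound. Luciferase activity reported as fold increase over untreated transformed cells, with EC50 derived.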

The subject of data set [2] is SMN-containing gems in type 1 SMA patient fibroblasts (3813 cells). The data set is described as follows: SMN-containing gem count in SMA patient fibroblasts. In kind it is cell-based, human. The following applies: 48 hours, 3813 fibroblasts. The source says:
SMN protein can be found in punctate nuclear particles called “gems” (Liu and Dreyfuss, EMBO J, 15 (14): 3555-3565 (1996)). In fibroblast cells derived from SMA patients, the number of gems corresponds to disease severity as follows: severe type 1 patients have approximately 5 gems per 100 nuclei; mild type 3 patients have 20-50 gems per 100 nuclei; normal individuals have approximately 100-150 gems per 100 nuclei (Coovert et al., Hum Mol Genet, 6 (8): 1205-1214 (1997), Young et al., Exp Cell Res, 265 (2): 252-261 (2001)).
Gems are detectable by immunohistochemistry and gem counts in patient fibroblasts have been used to test the ability of compounds to increase SMN protein levels (Mattis et al., Hum Genet, 120: 589-601 (2006)). Following these methods, fibroblast cells from a type 1 SMA patient (3813 cells, Coriell Cell Repositories) were treated for 48 hours with a compound of the invention. The cells were then fixed and incubated with a monoclonal antibody against SMN (4B7, Wolstencroft et al., Hum Mol Genet, 14: 1199-1210 (2005)). A FITC-conjugated anti-mouse secondary antibody was used to visualize the labeled gems. A positive control in these experiments was provided by fibroblasts from the same patient treated with 1000 μM valproic acid.

The test system of data set [3] is translational stop codon read-through, human SMN2 open reading frame-luciferase. The data set is described as follows: Translational read-through luciferase reporter assay (luciferase preceded by the open reading frame of the human SMN2 gene). It counts as cell-based. The source says:
This assay was similar in design to that described in WO 01/44516 A2. This was a cell-based luciferase reporter assay designed to detect translational read-through via insertion of a translational stop codon within the coding sequence that includes luciferase. In the presence of compounds that promote read-through of translational stop codons, active luciferase was produced and detected via chemiluminescence. Compounds of the invention typically were active in three versions of this assay: luciferase reporter containing a UGA stop codon, luciferase reporter containing a UAG stop codon, which is the first stop codon downstream of the improper splice junction between exons 6 and 8 in the human SMN2 transcript, and luciferase preceded by the open reading frame of the human SMN2 gene.

As a reminder, the melting point is the temperature, or range, at which the solid turns liquid. The compound `COc1ccc2c(c1)C(=O)N(c1ccc3c(c1)N(C)CCN3C)C2` [Example 38, 2-(1,4-dimethyl-1,2,3,4-tetrahydroquinoxalin-6-yl)-6-methoxyisoindolin-1-one] came in with a melting point of 137 to 142 °C.
As for `COc1ccc2c(c1)C(=O)N(c1ccc(C(C)C)cn1)C2` [Example 39, 2-(5-isopropylpyridin-2-yl)-6-methoxyisoindolin-1-one], the melting point was in the range of 109 to 110 °C.
For `COc1ccc2c(c1)C(=O)N(c1ccc3c(ccn3C)n1)C2` [Example 41, 6-methoxy-2-(1-methyl-1H-pyrrolo[3,2-b]pyridin-5-yl)isoindolin-1-one], the melting point fell in the range of 230 to 234 °C.
For the compound `COc1ccc2c(c1)C(=O)N(c1cc3ccn(C)c3cn1)C2` [Example 42, 6-methoxy-2-(1-methyl-1H-pyrrolo[2,3-c]pyridin-5-yl)isoindolin-1-one], the melting point lay in the range of 205 to 210 °C.
As for `COc1ccc2c(c1)C(=O)N(c1cnc3c(ccn3C)c1)C2` [Example 43, 6-methoxy-2-(1-methyl-1H-pyrrolo[2,3-b]pyridin-5-yl)isoindolin-1-one], the melting point lay in the range of 198 to 199 °C.
On to `COc1ccc2c(c1)C(=O)N(c1ccc3c(cnn3C)c1)C2` [Example 44, 6-methoxy-2-(1-methyl-1H-indazol-5-yl)isoindolin-1-one], for which the melting point lay within 213 to 214 °C.
On the same count and under the same terms, to `COc1ccc2c(c1)C(=O)N(c1ccc3c(c1)CCCN3C)C2` [Example 45, 6-methoxy-2-(1-methyl-1,2,3,4-tetrahydroquinolin-6-yl)isoindolin-1-one] belongs 123 to 127 °C; to `O=C1c2ccccc2CN1c1ccc2c(c1)OCCO2` [Example 46, 2-(2,3-dihydrobenzo[b][1,4]dioxin-6-yl)isoindolin-1-one], 170 to 176 °C.
Still for that read-out and setting: to `COc1ccc2c(c1)C(=O)N(c1ccc3ncsc3c1)C2` [Example 47, 2-(benzo[d]thiazol-6-yl)-6-methoxyisoindolin-1-one] belongs 204 to 207 °C; to `COc1ccc2c(c1)C(=O)N(c1ccc3ccoc3c1)C2` [Example 48, 2-(benzofuran-6-yl)-6-methoxyisoindolin-1-one], 141 to 143 °C; to `COc1ccc2c(c1)C(=O)N(c1ccc3nc(C)ncc3c1)C2` [Example 49, 6-methoxy-2-(2-methylquinazolin-6-yl)isoindolin-1-one], 245 to 247 °C.
On to `O=C1c2cc(OC(F)F)ccc2CN1c1ccc2c(c1)CCC2` [Example 50, 6-(difluoromethoxy)-2-(2,3-dihydro-1H-inden-5-yl)isoindolin-1-one], for which the melting point was 137 to 139 °C.
Compound `COc1ccc2c(c1)C(=O)N(c1ccc3cccnc3c1)C2` [Example 51, 6-methoxy-2-(quinolin-7-yl)isoindolin-1-one] returned a melting point of 220 to 223 °C.
One may read the EC50 as the midpoint of the concentration-response curve. Turning to `COc1ccc2c(c1)C(=O)N(c1ccc3c(ccn3C)c1)C2` [Example 118417], in data set [1], the midpoint of the response, the EC50, lay at 45 nM and the “Fold Increase” value is 1.485. For the same compound, the “Average number of gems per 100 nuclei” value in data set [2] (3 μM compound) turned out to be 53.
With `COc1ccc2c(c1)C(=O)N(c1ccc3ccsc3c1)C2` [Example 118739], in data set [1], the EC50 worked out at 102 nM and the “Fold Increase” value is 1.617. Further, in data set [2] (1 μM compound), the “Average number of gems per 100 nuclei” value came out at 76.
What is called maximal fold induction is the signal under treatment as a multiple of the control signal. Lower therefore signals little rise in signal. As for `CCCc1ccc2c(c1)C(=O)N(c1ccc3c(ccn3C)c1)C2` [Example 119522], in data set [1], the response was half-maximal at 68 nM (EC50) and the “Fold Increase” value is reported as 1.557. For the same compound, in data set [3], the EC50 was found to be 1840 nM and the maximal fold induction stood at 1.73. Besides, the “Average number of gems per 100 nuclei” value in data set [2] (1 μM compound) is listed as 6.
Consider `Cn1ccc2cc(N3Cc4ccc(OC(F)F)cc4C3=O)ccc21` [Example 119537], for which, in data set [1], the response was half-maximal at 112 nM (EC50) and the “Fold Increase” value worked out at 1.604. In data set [3], this compound came in with an EC50 of 1350 nM and a maximal fold induction of 2.12. Besides, in data set [2] (0.1 μM compound), the “Average number of gems per 100 nuclei” value worked out at 31.
As for `COc1ccc2c(c1)C(=O)N(c1ccc3cc[nH]c3c1)C2` [Example 119869], in data set [1], a half-maximal response (EC50) required 106 nM and the “Fold Increase” value is given as 1.716. Besides, the “Average number of gems per 100 nuclei” value in data set [2] (1 μM compound) is reported as 49.
With `COc1ccc2c(c1)C(=O)N(c1ccc3c(c1)CCCN3C)C2` [Example 120121], in data set [1], the EC50 was 20 nM and the “Fold Increase” value came to 1.702. In addition, in data set [2] (0.1 μM compound), the “Average number of gems per 100 nuclei” value was determined as 16.
On to `COc1ccc2c(c1)C(=O)N(c1ccc3ncccc3c1)C2` [Example 120286], for which, in data set [1], the EC50 was 30 nM and the “Fold Increase” value worked out at 1.713. In data set [2] (0.1 μM compound), the “Average number of gems per 100 nuclei” value is 132.
With `COc1ccc2c(c1)C(=O)N(c1ccc3c(c1)cc(C)n3C)C2` [Example 120595], in data set [1], the EC50 is 114 nM and the “Fold Increase” value is 1.531. Further, in data set [2] (1 μM compound), the “Average number of gems per 100 nuclei” value is given as 32.
Consider `O=C1c2cc(OC(F)F)ccc2CN1c1ccc2ncccc2c1` [Example 120790], for which, in data set [1], the midpoint of the response, the EC50, lay at 142 nM and the “Fold Increase” value was found to be 1.926. In addition, the “Average number of gems per 100 nuclei” value in data set [2] (1 μM compound) is 27.
Regarding `CC(=O)Nc1ccc2c(c1)C(=O)N(c1ccc3ccn(C)c3c1)C2` [Example 121505], in data set [1], a half-maximal effect (EC50) was put at 203 nM and the “Fold Increase” value is recorded as 1.817. The “Average number of gems per 100 nuclei” value in data set [2] (1 μM compound) came to 47.
On to `CCOc1ccc2c(c1)C(=O)N(c1ccc3c(ccn3C)c1)C2` [Example 121789], for which, in data set [1], a half-maximal response (EC50) required 69 nM and the “Fold Increase” value is recorded as 1.461. In addition, in data set [3], the half-maximal effective concentration (EC50) came to 350 nM and the maximal fold induction came to 1.79. For the same compound, the “Average number of gems per 100 nuclei” value in data set [2] (1 μM compound) was 10.
As for `CCC(C)c1ccc2c(c1)C(=O)N(c1ccc3c(ccn3C)c1)C2` (stereo not shown) [Example 122182], in data set [1], the midpoint of the response, the EC50, lay at 101 nM and the “Fold Increase” value is on record as 1.539. Besides, the “Average number of gems per 100 nuclei” value in data set [2] (1 μM compound) worked out at 18.
As for `Cn1ccc2cc(N3Cc4ccc(N5CCCC5)cc4C3=O)ccc21` [Example 122317], in data set [1], the EC50 amounted to 187 nM and the “Fold Increase” value is 1.47. In addition, the “Average number of gems per 100 nuclei” value in data set [2] (1 μM compound) was 45.
`Cc1cc2cc(N3Cc4ccc(Cl)cc4C3=O)ccc2n1C` [Example 123011]: in data set [1], a half-maximal response (EC50) required 88 nM and the “Fold Increase” value was 1.481. Besides, in data set [3], the response was half-maximal at 2640 nM (EC50) and the maximal fold induction worked out at 1.89. For the same compound, the “Average number of gems per 100 nuclei” value in data set [2] (1 μM compound) was 37.
In the case of `Cc1cc2cc(N3Cc4ccc(N(C)C)cc4C3=O)ccc2n1C` [Example 123707], in data set [1], it took 99 nM to reach a half-maximal effect (EC50) and the “Fold Increase” value is on record as 1.635. In data set [3], it took 91 nM to reach a half-maximal effect (EC50) and the maximal fold induction amounted to 1.44. The “Average number of gems per 100 nuclei” value in data set [2] (0.1 μM compound) is 53.
As to `COc1ccc2c(c1)C(=O)N(c1ccc3c(c1)cc(C)n3C(C)C)C2` [Example 123714], in data set [1], a half-maximal effect (EC50) was put at 2630 nM and the “Fold Increase” value was found to be 1.863. Moreover, in data set [3], the half-maximal effective concentration (EC50) stood at 1900 nM and the maximal fold induction turned out to be 1.18. The “Average number of gems per 100 nuclei” value in data set [2] (1 μM compound) was 84.
As to `CN(C)c1ccc2c(c1)C(=O)N(c1ccc3ncccc3c1)C2` [Example 124032], in data set [1], a half-maximal effect (EC50) was put at 9 nM and the “Fold Increase” value is recorded as 1.659. The compound also came in with a maximal fold induction in data set [3] of 1.02. In data set [2] (1 μM compound), the “Average number of gems per 100 nuclei” value amounted to 65.
For the compound `CN(C)c1ccc2c(c1)C(=O)N(c1ccc3c(ccn3C)c1)C2` [Example 124429], in data set [1], a half-maximal effect (EC50) was put at 24 nM and the “Fold Increase” value came to 1.594. Besides, in data set [2] (1 μM compound), the “Average number of gems per 100 nuclei” value amounted to 44.
Consider `Cn1ccc2ccc(N3Cc4ccc(N5CCCC5)cc4C3=O)cc21` [Example 124596], for which, in data set [1], the midpoint of the response, the EC50, lay at 47 nM and the “Fold Increase” value was determined as 1.681. In addition, in data set [2] (1 μM compound), the “Average number of gems per 100 nuclei” value is listed as 43.
For `COc1ccc2c(c1)C(=O)N(c1ccc3cc(C)n(C)c3c1)C2` [Example 124597], in data set [1], the EC50 amounted to 347 nM and the “Fold Increase” value was 1.358. The “Average number of gems per 100 nuclei” value in data set [2] (1 μM compound) is recorded as 42.
As for `CN(C)c1ccc2c(c1)C(=O)N(c1ccc3ccn(C)c3c1)C2` [Example 124771], in data set [1], the EC50 came out at 43 nM and the “Fold Increase” value stood at 1.689. In addition, in data set [3], the EC50 came out at 4210 nM and the maximal fold induction is 1.8. The “Average number of gems per 100 nuclei” value in data set [2] (1 μM compound) came to 50.
